Values of other authors in patent US20250295115A1, “USE OF HERBICIDAL COMPOSITIONS BASED ON L-GLUFOSINATE IN TOLERANT FIELD CROPS” (BASF SE, priority 2017, published 2025).

System: perennial weeds and brush
Conditions: as taught by U.S. Pat. No. 4,265,654

SMILES: CP(=O)(O)CC[C@H](N)C(=O)O (single isomer, unassigned) [L-isomer]
- Effectiveness compared with the racemic acid: twice as effective
